In experiment [1] the target is T1, Human PDGFRα, cytoplasmic domain (GST-PDGFRα) (Homo sapiens, UniProt P16234).
T1 construct: made in house
Description: Human PDGFRα biochemical inhibition assay (off-chip Mobility Shift Assay).

For experiment [2], the target named is T2, Human PDGFRβ, cytoplasmic domain (GST-PDGFRβ) (Homo sapiens, UniProt P09619).
T2 construct: made in house
The experiment can be described thus: Human PDGFRβ biochemical inhibition assay (off-chip Mobility Shift Assay). The method in brief: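 GST-tagged cytoplasmic domain (aa 557-1106) from baculovirus was incubated 1 h at room temperature with compound, CSKtide, ATP at Km and Mg²⁺ in HEPES buffer, pH 7.5. Phosphorylated and unphosphorylated peptide were separated by off-chip mobility shift, and the product ratio P/(P+S) gave percent inhibition.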

Each structure is given as a SMILES string. A value given as a limit tells only on which side of the number the result lay.

T1 sequence (P16234 550-1089 T674I): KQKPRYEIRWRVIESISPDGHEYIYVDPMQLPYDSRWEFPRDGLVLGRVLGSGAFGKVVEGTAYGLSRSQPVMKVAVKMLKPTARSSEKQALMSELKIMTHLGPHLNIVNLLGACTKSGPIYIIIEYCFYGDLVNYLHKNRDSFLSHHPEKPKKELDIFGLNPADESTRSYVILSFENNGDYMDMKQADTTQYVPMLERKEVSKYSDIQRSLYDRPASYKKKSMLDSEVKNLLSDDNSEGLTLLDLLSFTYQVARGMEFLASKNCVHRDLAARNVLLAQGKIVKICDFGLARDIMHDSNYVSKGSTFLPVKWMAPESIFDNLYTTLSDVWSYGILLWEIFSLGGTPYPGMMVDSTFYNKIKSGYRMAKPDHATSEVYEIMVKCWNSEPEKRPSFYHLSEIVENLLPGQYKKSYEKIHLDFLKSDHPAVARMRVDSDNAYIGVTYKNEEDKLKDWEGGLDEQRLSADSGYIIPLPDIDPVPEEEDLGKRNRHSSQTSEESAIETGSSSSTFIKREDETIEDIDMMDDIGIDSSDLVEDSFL
T2 sequence (P09619 with tags, fused parts or gaps): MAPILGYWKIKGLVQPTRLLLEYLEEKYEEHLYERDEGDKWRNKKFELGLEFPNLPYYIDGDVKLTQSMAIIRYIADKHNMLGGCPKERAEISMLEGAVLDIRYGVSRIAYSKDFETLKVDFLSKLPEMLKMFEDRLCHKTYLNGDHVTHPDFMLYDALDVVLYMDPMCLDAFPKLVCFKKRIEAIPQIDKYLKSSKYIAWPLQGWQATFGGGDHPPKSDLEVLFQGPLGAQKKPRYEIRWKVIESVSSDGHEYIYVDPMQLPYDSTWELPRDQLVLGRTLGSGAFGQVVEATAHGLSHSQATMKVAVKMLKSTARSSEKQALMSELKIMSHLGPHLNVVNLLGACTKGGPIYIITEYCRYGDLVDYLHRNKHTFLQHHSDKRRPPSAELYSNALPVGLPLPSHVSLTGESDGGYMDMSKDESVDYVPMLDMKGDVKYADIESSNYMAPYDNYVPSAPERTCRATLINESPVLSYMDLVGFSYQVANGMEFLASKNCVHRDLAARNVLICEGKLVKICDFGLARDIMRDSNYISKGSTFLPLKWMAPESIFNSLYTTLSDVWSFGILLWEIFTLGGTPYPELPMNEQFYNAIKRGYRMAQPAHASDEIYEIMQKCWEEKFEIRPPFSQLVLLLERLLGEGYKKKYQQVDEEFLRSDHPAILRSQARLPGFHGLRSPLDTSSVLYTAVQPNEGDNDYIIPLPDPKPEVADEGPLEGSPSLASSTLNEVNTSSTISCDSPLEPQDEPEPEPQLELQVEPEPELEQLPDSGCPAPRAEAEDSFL

A word on the IC50: it is the concentration that gives 50% inhibition. Turning to `CCn1cc2ncc(N[C@@H](C)c3cccc(NC(=O)c4cnc(C)c(C)c4)c3)nc2n1` [Compound 328, (S)-N-(3-(1-((2-ethyl-2H-pyrazolo[3,4-b]pyrazin-6-yl)amino)ethyl)phenyl)-5,6-dimethylnicotinamide], the IC50 in experiment [1] and in experiment [2] was below 300 nM each time.

`CCn1cc2ncc(N[C@@H](C)c3cccc(NC(=O)c4cnc(F)c(C)c4)c3)nc2n1` [Compound 329, (S)-N-(3-(1-((2-ethyl-2H-pyrazolo[3,4-b]pyrazin-6-yl)amino)ethyl)phenyl)-6-fluoro-5-methylnicotinamide]: the IC50 in experiment [1] and in experiment [2] was below 300 nM each time.

For the compound `CCn1cc2ncc(N[C@@H](C)c3cccc(NC(=O)c4ccc(F)c(C)c4)c3)nc2n1` [Compound 330, (S)-N-(3-(1-((2-ethyl-2H-pyrazolo[3,4-b]pyrazin-6-yl)amino)ethyl)phenyl)-4-fluoro-3-methylbenzamide], the IC50 in experiment [1] and in experiment [2] was below 300 nM in each case.

For `CCn1cc2ncc(N[C@@H](C)c3cccc(NC(=O)c4ccc(C#N)c(C)c4)c3)nc2n1` [Compound 331, (S)-4-cyano-N-(3-(1-((2-ethyl-2H-pyrazolo[3,4-b]pyrazin-6-yl)amino)ethyl)phenyl)-3-methylbenzamide], the IC50 in experiment [1] and in experiment [2] was below 300 nM throughout.

As to `CCn1cc2ncc(N[C@@H](C)c3cccc(NC(=O)c4ccc(C)c(Cl)c4)c3)nc2n1` [Compound 332, (S)-3-chloro-N-(3-(1-((2-ethyl-2H-pyrazolo[3,4-b]pyrazin-6-yl)amino)ethyl)phenyl)-4-methylbenzamide], the IC50 in experiment [1] and in experiment [2] was below 300 nM throughout.

`CCNc1ncc(C(=O)Nc2cccc([C@H](C)Nc3cnc4cn(CC)nc4n3)c2)cc1C` [Compound 333, (S)-N-(3-(1-((2-ethyl-2H-pyrazolo[3,4-b]pyrazin-6-yl)amino)ethyl)phenyl)-6-(ethylamino)-5-methylnicotinamide]: the figures for the IC50 in experiment [1] and in experiment [2] were below 300 nM and 300 to 1000 nM, respectively.

As for `CCn1cc2ncc(N[C@@H](C)c3cccc(NC(=O)c4cnc(-n5ccnc5)c(C)c4)c3)nc2n1` [Compound 334, (S)-N-(3-(1-((2-ethyl-2H-pyrazolo[3,4-b]pyrazin-6-yl)amino)ethyl)phenyl)-6-(1H-imidazol-1-yl)-5-methylnicotinamide], the half-maximal inhibitory concentration (IC50) in experiment [1] and in experiment [2] was below 300 nM throughout.

In the case of `CCn1cc2ncc(N[C@@H](C)c3cc(NC(=O)c4cnc(C(F)(F)F)c(C)c4)ccc3F)nc2n1` [Compound 335, (S)-N-(3-(1-((2-ethyl-2H-pyrazolo[3,4-b]pyrazin-6-yl)amino)ethyl)-4-fluorophenyl)-5-methyl-6-(trifluoromethyl) nicotinamide], the IC50 in experiment [1] and in experiment [2] was below 300 nM throughout.

For `CCn1cc2ncc(N[C@@H](C)c3cc(NC(=O)c4cnc(N5CCCC5)c(C)c4)ccc3F)nc2n1` [Compound 336, (S)-N-(3-(1-((2-ethyl-2H-pyrazolo[3,4-b]pyrazin-6-yl)amino)ethyl)-4-fluorophenyl)-5-methyl-6-(pyrrolidin-1-yl) nicotinamide], the IC50 in experiment [1] and in experiment [2] was below 300 nM each time.

Turning to `CCn1cc2ncc(N[C@@H](C)c3cc(NC(=O)c4ccc(NC)nc4)ccc3F)nc2n1` [Compound 337, (S)-N-(3-(1-((2-ethyl-2H-pyrazolo[3,4-b]pyrazin-6-yl)amino)ethyl)-4-fluorophenyl)-6-(methylamino)nicotinamide], the IC50 in experiment [1] and in experiment [2] was below 300 nM in each case.

As for `CCn1cc2ncc(N[C@@H](C)c3cccc(NC(=O)c4cnc(COC)s4)c3)nc2n1` [Compound 338, (S)-N-(3-(1-((2-ethyl-2H-pyrazolo[3,4-b]pyrazin-6-yl)amino)ethyl)phenyl)-2-(methoxymethyl)thiazole-5-carboxamide], the IC50 in experiment [1] was below 300 nM; in experiment [2], 300 to 1000 nM.

The values are drawn from patent US20230102554A1 (GB002, INC., priority 2019, published 2023).
